Data reported in patent US6844343B1, “N-substituted 4-aminopteridines, synthesis and use thereof as pharmaceutical agent” (Vasopharm Biotech GmbH, priority 1999, dated 2005).

Key:
[1] = system: purified NO synthase from pig cerebellum or from pig liver; assay: Activity assay of purified NOS (3H-L-arginine to 3H-L-citrulline conversion); format: biochemical; conditions: substance 100 μM, in the presence of 2 μM tetrahydrobiopterin, 15 min at 37° C.
Experimental: The inhibition of the activity of purified nitric oxide synthase (NOS) by compounds of the general formula I can be determined as follows.
In this activity assay the L-citrulline which is a coproduct of the formation of NO by purified NOS is quantitatively measured. ^3H-radiolabeled L-arginine is employed as substrate of the enzyme reaction and is converted into ^3H-L-citrulline and NO. After completion of the enzyme incubation, generated L-citrulline is removed from unused L-arginine by ion exchange chromatography from the reaction mixture; the ^3H activity measured by liquid scintillation then is corresponds to the amount of L-citrulline, which is a direct measure of the activity of NOS.
The basic medium for carrying out the enzyme reaction is TE buffer (triethanolamine, EDTA, pH 7.0).
The final volume of each incubation is 100 μl. The reaction mixture is obtained by mixing the following 6 components on ice: • 1. “REA-Mix” (pH 7.0) which contains triethanolamine, calcium chloride, magnesium chloride, EDTA, L-arginine, calmodulin and flavin adenine dinucleotide (FAD); • 2. freshly prepared stock solution of β-nicotinamide adenine dinucleotide phosphate, reduced form (NADPH); • 3. (6R)-5,6,7,8-tetrahydro-L-biopterin dihydro-chloride stock solution (BH4) or —for experiments without BH4-instead TE buffer; • 4. purified NO synthase from pig cerebellum or from pig liver; • 5.
After mixing of the components on ice, the reaction mixture was immediately incubated in a water bath at 37° C. for 15 minutes. […] After this incubation time, the reaction was stopped by addition of 900 μl of ice-cold “stop buffer” (20 mM sodium acetate, 2 mM EDTA, pH 5.5), and the mixture (total volume now 1.0 ml) was placed on ice. To remove the unreacted ^3H-L-arginine, the mixture was loaded onto an ion exchange column with 0.8 ml of Dowex AG 50 WX-8 (100-200 mesh) which has previously been washed and equilibrated with 2 ml of stop buffer. After loading of the sample, the column was eluted twice with 1 ml of water each time. The flow-through of the sample and the eluate were collected in scintillation vessels and […] (total volume 3 ml). 9 ml of scintillator solution were added to the 3 ml of aqueous measurement solution, and the homogeneous mixture was measured in a Tricarb 2500 TR (Packard) liquid scintillation counter for 1 minute for each sample. […] Each substance was tested for an antagonistic effect in a concentration of 100 μM in the presence of 2 μM tetrahydrobiopterin, and for an agonistic effect on NOS in the absence of tetrahydrobiopterin.
All incubations were carried out on triplicates. Each experiment was repeated three times with different enzyme preparations.

NO synthase = conditions: literature reports on BH4 analogues; cited from earlier work

2-amino-4-(4-methylpiperazin-1-yl)-6-(4-chloro-phenyl)pteridine hemihydrate [Example 36]
Remaining activity (% of Vmax) [1]: 64 ± 9 % of Vmax

2-amino-4-(4-methylpiperazin-1-yl)-6-(4-methoxy-phenyl)pteridine hemihydrate [Example 37]
Remaining activity (% of Vmax) [1]: 84 ± 5 % of Vmax

2-amino-4-(4-methylpiperazin-1-yl)-6-phenyl-pteridine hemihydrate [Example 35]
Remaining activity (% of Vmax) [1]: 83 ± 1 % of Vmax

2-amino-4-(morpholin-4-yl)-6-(4-methoxyphenyl)-5,6,7,8-tetrahydropteridine hydrochloride hemi-hydrate [Example 40]
Remaining activity (% of Vmax) [1]: 66 ± 14 % of Vmax

2-amino-4-(morpholin-4-yl)-6-phenyl-5,6,7,8-tetra-hydropteridine dihydrochloride hemihydrate [Example 42]
Remaining activity (% of Vmax) [1]: 51 ± 3 % of Vmax

CC1CNc2nc(N)[nH]c(=O)c2C1 (centres unmarked) [5-deaza-6-methyl-5,6,7,8-tetrahydropterin]
effect on NO production / NO synthase (NO synthase): weak inhibition

CC1Nc2nc(N)[nH]c(=O)c2NC1C (centres unmarked) [6,7-dimethyl-5,6,7,8-tetrahydropterin]
effect on NO production / NO synthase (NO synthase): no significant effects

CC1CNc2nc(N)[nH]c(=O)c2N1 (centres unmarked) [6-methyl-5,6,7,8-tetrahydropterin]
effect on NO production / NO synthase (NO synthase): able to partly replace the natural cofactor

CC(O)C(O)C1CNc2c(nc(N)[nH]c2=O)N1 (centres unmarked) [7-R/S-BH4]
effect on NO production / NO synthase (NO synthase): able to partly replace the natural cofactor

C[C@@H](O)[C@@H](O)[C@H]1CNc2nc(N)[nH]c(=O)c2N1 [Example 6S-BH4, 6S-BH4]
effect on NO production / NO synthase (NO synthase): able to partly replace the natural cofactor

CN(C)c1nc(N)nc2ncc(-c3ccccc3)nc12 [Example 11, 2-amino-4-(dimethylamino)-6-phenylpteridine]
Remaining activity (% of Vmax) [1]: 92 ± 11 % of Vmax

Cc1ccc(-c2cnc3nc(N)nc(N(C)C)c3n2)cc1 [Example 12, 2-amino-4-(dimethylamino)-6-(4-methylphenyl)-pteridine]
Remaining activity (% of Vmax) [1]: 15 ± 7 % of Vmax

COc1ccc(-c2cnc3nc(N)nc(N(C)C)c3n2)cc1 [Example 13, 2-amino-4-(dimethylamino)-6-(4-methoxyphenyl)-pteridine]
Remaining activity (% of Vmax) [1]: 13 ± 4 % of Vmax

CCN(CC)c1nc(N)nc2ncc(-c3ccccc3)nc12.O [Example 15, 2-amino-4-(diethylamino)-6-phenylpteridine hydrate]
Remaining activity (% of Vmax) [1]: 75 ± 3 % of Vmax

CCN(CC)c1nc(N)nc2ncc(-c3ccc(Cl)cc3)nc12.O.O [Example 16, 2-amino-4-(diethylamino)-6-(4-chlorophenyl)-pteridine dihydrate]
Remaining activity (% of Vmax) [1]: 42 ± 10 % of Vmax

CCN(CC)c1nc(N)nc2ncc(-c3ccc(OC)cc3)nc12.O [Example 17, 2-amino-4-(diethylamino)-6-(4-methoxyphenyl)-pteridine hydrate]
Remaining activity (% of Vmax) [1]: 2 ± 0.1 % of Vmax

CCN(CC)c1nc(N)nc2ncc(-c3ccc(OC)c(OC)c3)nc12.O [Example 18, 2-amino-4-(diethylamino)-6-(3,4-dimethoxyphenyl)-pteridine hydrate]
Remaining activity (% of Vmax) [1]: 23 ± 4 % of Vmax

Nc1nc(N(Cc2ccccc2)Cc2ccccc2)c2nc(-c3ccccc3)cnc2n1.O.O [Example 19, 2-amino-4-(dibenzylamino)-6-phenylpteridine dihydrate]
Remaining activity (% of Vmax) [1]: 0 ± 0.05 % of Vmax

CCCN(CCC)c1nc(N)nc2ncc(-c3ccccc3)nc12.O.O.O [Example 23, 2-amino-4-(di-n-propylamino)-6-phenylpteridine trihydrate]
Remaining activity (% of Vmax) [1]: 77 ± 16 % of Vmax

CCCN(CCC)c1nc(N)nc2ncc(-c3ccc(Cl)cc3)nc12.O.O.O [Example 24, 2-amino-4-(di-n-propylamino)-6-(4-chlorophenyl)-pteridine trihydrate]
Remaining activity (% of Vmax) [1]: 7 ± 4 % of Vmax

CCCN(CCC)c1nc(N)nc2ncc(-c3ccc(OC)cc3)nc12.O [Example 25, 2-amino-4-(di-n-propylamino)-6-(4-methoxyphenyl)-pteridine hydrate]
Remaining activity (% of Vmax) [1]: 25 ± 12 % of Vmax

CCCN(CCC)c1nc(N)nc2ncc(-c3ccc(OC)c(OC)c3)nc12.O [Example 26, 2-amino-4-(di-n-propylamino)-6-(3,4-dimethoxy-phenyl)pteridine hydrate]
Remaining activity (% of Vmax) [1]: 0 % of Vmax

Nc1nc(N2CCOCC2)c2nc(-c3ccccc3)cnc2n1.O [Example 27, 2-amino-4-(morpholin-4-yl)-6-phenylpteridine hydrate]
Remaining activity (% of Vmax) [1]: 41 ± 8 % of Vmax

Cl.Nc1nc(N2CCOCC2)c2nc(-c3ccc(Cl)cc3)cnc2n1.O [Example 28, 2-amino-4-(morpholin-4-yl)-6-(4-chlorophenyl)-pteridine hydrochloride hydrate]
Remaining activity (% of Vmax) [1]: 3 ± 1.5 % of Vmax

COc1ccc(-c2cnc3nc(N)nc(N4CCOCC4)c3n2)cc1OC.O.O.O [Example 30, 2-amino-4-(morpholin-4-yl)-6-(3,4-dimethoxy-phenyl)pteridine trihydrate]
Remaining activity (% of Vmax) [1]: 5 ± 3 % of Vmax

Nc1nc(N2CCCCC2)c2nc(-c3ccccc3)cnc2n1.O.O [Example 31, 2-amino-4-(piperidin-1-yl)-6-phenylpteridine dihydrate]
Remaining activity (% of Vmax) [1]: 0 ± 0.05 % of Vmax

Nc1nc(N2CCCCC2)c2nc(-c3ccc(Cl)cc3)cnc2n1.O.O [Example 32, 2-amino-4-(piperidin-1-yl)-6-(4-chlorophenyl)-pteridine dihydrate]
Remaining activity (% of Vmax) [1]: 3 ± 1 % of Vmax

COc1ccc(-c2cnc3nc(N)nc(N4CCN(C)CC4)c3n2)cc1OC.O.O [Example 38, 2-amino-4-(4-methylpiperazin-1-yl)-6-(3,4-di-methoxyphenyl)pteridine dihydrate]
Remaining activity (% of Vmax) [1]: 99 ± 16 % of Vmax

COc1ccc(-c2cnc3nc(N)nc(N4CCCC4)c3n2)cc1.O.O [Example 39, 2-amino-4-(pyrrolidin-1-yl)-6-(4-methoxyphenyl)-pteridine dihydrate]
Remaining activity (% of Vmax) [1]: 30 ± 5 % of Vmax

COc1ccc(C2CNc3nc(N)nc(N4CCOCC4)c3N2)cc1OC.Cl.O (centres unmarked) [Example 41, 2-amino-4-(morpholin-4-yl)-6-(3,4-dimethoxy-phenyl)-5,6,7,8-tetrahydropteridine hydrochloride hydrate]
Remaining activity (% of Vmax) [1]: 68 ± 11 % of Vmax

Cl.Cl.Cl.Nc1nc2c(c(N3CCCCC3)n1)NC(c1ccc(Cl)cc1)CN2.O (centres unmarked) [Example 43, 2-amino-4-(piperidin-1-yl)-6-(4-chlorophenyl)-5,6,7,8-tetrahydropteridine trihydrochloride hydrate]
Remaining activity (% of Vmax) [1]: 0 % of Vmax

C[C@H](O)[C@H](O)C1=Nc2c(nc(N)[nH]c2=O)NC1 [dihydrobiopterin]
effect on NO production / NO synthase (NO synthase): able to partly replace the natural cofactor
